In series [1] the test system is MC3T3-E1. As to the kind of experiment: Induction of osteoblast differentiation in […] MC3T3-E1 cells assessed as increase in Runx2 mRNA expression at 5 uM after 4 days by RT-PCR method. It is filed as functional, cell-based.
Series [2] concerns MC3T3-E1. The series can be described thus: Induction of osteoblast differentiation in […] MC3T3-E1 cells assessed as increase in ALP mRNA expression at 5 uM after 4 days by RT-PCR method. It is filed as functional, cell-based.
Series [3] has as its system MC3T3-E1. As to the kind of experiment: Induction of osteoblast differentiation in […] MC3T3-E1 cells assessed as increase in ALP activity at 5 uM after 4 days using BCIP/NBT liquid substrate. It is filed as functional, cell-based.
Series [4] deals with MC3T3-E1. The series can be described thus: Induction of mineralization in […] MC3T3-E1 cells at 5 uM after 14 days by alizarin red S staining based assay. It is filed as functional, cell-based.
The test system of series [5] is C3H 10T1/2. The series can be described thus: Induction of osteoblast differentiation in mouse C3H10T1/2 cells assessed as increase in osteocalcin mRNA expression at 5 uM after 4 days by RT-PCR method. Type of series: functional, cell-based.
The subject of series [6] is C3H 10T1/2. As to the kind of experiment: Induction of osteoblast differentiation in mouse C3H10T1/2 cells assessed as increase in ALP mRNA expression at 5 uM after 4 days by RT-PCR method. It is filed as functional, cell-based.
Series [7] deals with MC3T3-E1. As to the kind of experiment: Induction of osteoblast differentiation in […] MC3T3-E1 cells assessed as increase in Dlx5 mRNA expression at 5 uM after 4 days by RT-PCR method. Type of series: functional, cell-based.
Series [8] has as its system C3H 10T1/2. As to the kind of experiment: Cytotoxicity against mouse C3H10T1/2 cells assessed as reduction in cell viability up to 5 uM after 48 hrs by MTT assay. It is filed as cell-based. To be noted: c3h 10t1/2, 48 h.
The subject of series [9] is C3H 10T1/2. The series can be described thus: Induction of osteoblast differentiation in mouse C3H10T1/2 cells assessed as increase in Runx2 mRNA expression at 5 uM after 4 days by RT-PCR method. It is filed as functional, cell-based.
The test system of series [10] is MC3T3-E1. As to the kind of experiment: Induction of osteoblast differentiation in […] MC3T3-E1 cells assessed as increase in osteocalcin mRNA expression at 5 uM after 4 days by RT-PCR method. Type of series: functional, cell-based.
The nature of series [11]: Solubility of the compound in DMSO. It is filed as physicochemical.
Series [12] deals with C3H 10T1/2. The series can be described thus: Induction of osteoblast differentiation in mouse C3H10T1/2 cells assessed as increase in Dlx5 mRNA expression at 5 uM after 4 days by RT-PCR method. Type of series: functional, cell-based.

Calls of active or inactive are those of the source. No cut-off for these calls is given here.

In the case of `COc1cc([C@H]2CC(=O)O[C@H]2C)ccc1O` [CURCULACTONE A], the result in the series with MC3T3-E1 [1], in the series on MC3T3-E1 [2], in the series with MC3T3-E1 [3], in the series with MC3T3-E1 [4], in the series with C3H 10T1/2 [5] and with C3H 10T1/2 [6] was Active. Besides, the outcome in the series with MC3T3-E1 [7], in the series on C3H 10T1/2 [9], in the series on MC3T3-E1 [10] and with C3H 10T1/2 [12] was Active. Besides, the Activity result with C3H 10T1/2 [8] is recorded as “Non-Toxic”. Also, the solubility result in [11] is recorded as “Soluble”.

On to `COc1cc(O)cc([C@@H]2CC(=O)O[C@H]2C)c1` [CURCULACTONE B], for which the result with MC3T3-E1 [1], in the series on MC3T3-E1 [2], with MC3T3-E1 [3], in the series with MC3T3-E1 [4], with C3H 10T1/2 [5] and with C3H 10T1/2 [6] was Active. Besides, the outcome with MC3T3-E1 [7], with C3H 10T1/2 [9], in the series with MC3T3-E1 [10] and with C3H 10T1/2 [12] was Active. For the same compound, the Activity result with C3H 10T1/2 [8] is listed as “Non-Toxic”. For the same compound, the solubility result in series [11] is given as “Soluble”.

Values taken from ChEMBL document CHEMBL3994621, “Curculactones A and B induced the differentiation of C3H10T1/2 and MC3T3-E1 cells to osteoblasts” (Bioorg Med Chem Lett, 2017).
